Test results: patent US6355799B1, “Substituted benzene compounds, process for their preparation, and herbicidal and defoliant compositions containing them” (ISK Americas Incorporated, priority 1997, dated 2002)

Legend:
Type in all cases: in vivo
[1] = tested on: velvetleaf (Abutilon theophrasti, ABUTH); assay: Post-emerge test, greenhouse herbicide activity screening; details: rating scale 0-100 (0 no damage, 100 complete death), 14 days after application
Summary of the method: (§1)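 Compounds in acetone were track-sprayed at 15-1000 g ai/ha (187 l/ha) on sandy loam pots: pre-emerge one day after seeding, post-emerge at 2-3 leaf stage with 0.25% v/v non-ionic surfactant. Phytotoxicity was rated 14 days later on a 0 (no damage) to 100 (complete death) scale.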

[2] = tested on: common ragweed (Ambrosia artemisizfolia L., AMBEL); assay: as above; details: rating scale 0-100 (0 no damage, 100 complete death), 14 days after application
Summary of the method: as §1

[3] = tested on: large crabgrass (Digitaria sanguinalis, DIGSA); assay: as above; details: rating scale 0-100 (0 no damage, 100 complete death), 14 days after application
Summary of the method: as §1

[4] = tested on: barnyardgrass (Echinochloa crus-galli, ECHCG); assay: as above; details: rating scale 0-100 (0 no damage, 100 complete death), 14 days after application
Summary of the method: as §1

[5] = tested on: sicklepod (Cassia obtusifolia, CASOB); assay: as above; details: rating scale 0-100 (0 no damage, 100 complete death), 14 days after application
Summary of the method: as §1

[6] = tested on: lambsquarters (Chenopodium album, CHEAL); assay: as above; details: rating scale 0-100 (0 no damage, 100 complete death), 14 days after application
Summary of the method: as §1

[7] = tested on: redroot pigweed (Amaranthus retroflexus, AMARE); assay: as above; details: rating scale 0-100 (0 no damage, 100 complete death), 14 days after application
Summary of the method: as §1

[8] = tested on: ivyleaf morningglory (Ipomoea hederacea, IPOHE); assay: as above; details: rating scale 0-100 (0 no damage, 100 complete death), 14 days after application
Summary of the method: as §1

[9] = tested on: green foxtail (Setaria viridis, SETVI); assay: as above; details: rating scale 0-100 (0 no damage, 100 complete death), 14 days after application
Summary of the method: as §1

[10] = tested on: upland rice (Oryza sp., var. Tebonnet, RICE); assay: Pre-emerge test, crop safety; details: rating scale 0-100, 14 days after application
Summary of the method: (§2)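 Herbicidal damage is scored 0 (none) to 100 (complete plant death) two weeks after a simulated field spray. Rates span 15–1000 g ai/ha, delivered in acetone at 187 l/ha. For post-emergence treatments, plants have 2–3 leaves and the spray carries 0.25% v/v non-ionic surfactant.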

[11] = tested on: field corn (Zea mays L., var. Dekalb 535, CORN); assay: Pre-emerge test, crop safety; details: rating scale 0-100, 14 days after application
Summary of the method: as §2

[12] = tested on: redroot pigweed (Amaranthus retroflexus, AMARE); assay: Pre-emerge test, greenhouse herbicide activity screening; details: rating scale 0-100, 14 days after application
Summary of the method: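 Visual ratings on a 0-100 scale (0 no damage, 100 all plants dead) were taken at 14 days after treatment. Rates of 15-1000 g ai/ha in acetone, 187 l/ha, were sprayed onto soil one day after planting (pre-emerge) or onto 2-3 leaf plants with 0.25% v/v surfactant (post-emerge).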

[13] = tested on: upland rice (Oryza sp., var. Tebonnet, RICE); assay: Post-emerge test, crop safety; details: rating scale 0-100 (0 no damage, 100 complete death), 14 days after application
Summary of the method: (§3)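 Sandy loam pots; pre-emerge: sown 1 d pre-spray, surface-watered after, then bottom-watered. Post-emerge: sown 8–21 d before, 2–3 leaf stage, + 0.25% v/v NIS, bottom-watered. Acetone, 187 l/ha track spray, 15–1000 g ai/ha. 0–100 injury score, day 14.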

[14] = tested on: field corn (Zea mays L., var. Dekalb 535, CORN); assay: Post-emerge test, crop safety; details: rating scale 0-100 (0 no damage, 100 complete death), 14 days after application
Summary of the method: as §3

[15] = tested on: velvetleaf (Abutilon theophrasti, ABUTH); assay: Pre-emerge test, greenhouse herbicide activity screening; details: rating scale 0-100, 14 days after application
Summary of the method: as §3

[16] = tested on: common ragweed (Ambrosia artemisizfolia L., AMBEL); assay: as above; details: rating scale 0-100, 14 days after application
Summary of the method: as §3

[17] = tested on: large crabgrass (Digitaria sanguinalis, DIGSA); assay: as above; details: rating scale 0-100, 14 days after application
Summary of the method: as §3

[18] = tested on: barnyardgrass (Echinochloa crus-galli, ECHCG); assay: as above; details: rating scale 0-100, 14 days after application
Summary of the method: as §3

[19] = tested on: sicklepod (Cassia obtusifolia, CASOB); assay: as above; details: rating scale 0-100, 14 days after application
Summary of the method: as §3

[20] = tested on: lambsquarters (Chenopodium album, CHEAL); assay: as above; details: rating scale 0-100, 14 days after application
Summary of the method: as §3

[21] = tested on: johnsongrass (Sorghum halepense, SORHA); assay: as above; details: rating scale 0-100, 14 days after application
Summary of the method: as §3

[22] = tested on: ivyleaf morningglory (Ipomoea hederacea, IPOHE); assay: as above; details: rating scale 0-100, 14 days after application
Summary of the method: as §3

[23] = tested on: green foxtail (Setaria viridis, SETVI); assay: as above; details: rating scale 0-100, 14 days after application
Summary of the method: as §3

CCCCOC(=O)C(Cl)Cc1c(OC)c(Cl)cc(F)c1-n1c(=O)cc(C(F)(F)F)n(C)c1=O (single isomer, unassigned) [14-9]
Post-emerge Herbicidal Activity, phytotoxicity rating ABUTH ([1]; Rate 63 g ai/ha): 70 | Post-emerge Herbicidal Activity, phytotoxicity rating ABUTH ([1]; Rate 250 g ai/ha): 100 | Post-emerge Herbicidal Activity, phytotoxicity rating AMBEL ([2]; Rate 63 g ai/ha): 10 | Post-emerge Herbicidal Activity, phytotoxicity rating AMBEL ([2]; Rate 250 g ai/ha): 70 | Post-emerge Herbicidal Activity, phytotoxicity rating DIGSA ([3]; Rate 63 g ai/ha): 75 | Post-emerge Herbicidal Activity, phytotoxicity rating DIGSA ([3]; Rate 250 g ai/ha): 75 | Post-emerge Herbicidal Activity, phytotoxicity rating ECHCG ([4]; Rate 63 g ai/ha): 98 | Post-emerge Herbicidal Activity, phytotoxicity rating ECHCG ([4]; Rate 250 g ai/ha): 100 | Post-emerge Herbicidal Activity, phytotoxicity rating CASOB ([5]; Rate 63 g ai/ha): 0 | Post-emerge Herbicidal Activity, phytotoxicity rating CASOB ([5]; Rate 250 g ai/ha): 0 | Post-emerge Herbicidal Activity, phytotoxicity rating CHEAL ([6]; Rate 63 g ai/ha): 60 | Post-emerge Herbicidal Activity, phytotoxicity rating CHEAL ([6]; Rate 250 g ai/ha): 99 | Post-emerge Herbicidal Activity, phytotoxicity rating AMARE ([7]; Rate 63 g ai/ha): 90 | Post-emerge Herbicidal Activity, phytotoxicity rating AMARE ([7]; Rate 250 g ai/ha): 99 | Post-emerge Herbicidal Activity, phytotoxicity rating IPOHE ([8]; Rate 63 g ai/ha): 0 | Post-emerge Herbicidal Activity, phytotoxicity rating IPOHE ([8]; Rate 250 g ai/ha): 80 | Post-emerge Herbicidal Activity, phytotoxicity rating SETVI ([9]; Rate 63 g ai/ha): 30 | Post-emerge Herbicidal Activity, phytotoxicity rating SETVI ([9]; Rate 250 g ai/ha): 60 | Pre-emerge phytotoxicity rating, crop damage RICE ([10]; 63 g ai/ha): 0 | Pre-emerge phytotoxicity rating, crop damage RICE ([10]; 250 g ai/ha): 5 | Pre-emerge phytotoxicity rating, crop damage CORN ([11]; 63 g ai/ha): 0 | Pre-emerge phytotoxicity rating, crop damage CORN ([11]; 250 g ai/ha): 75 | Pre-emerge herbicidal activity, phytotoxicity rating AMARE ([12]; 63 g ai/ha): 80 | Pre-emerge herbicidal activity, phytotoxicity rating AMARE ([12]; 250 g ai/ha): 100 | Post-emerge phytotoxicity rating RICE (crop damage) ([13]; Rate 63 g ai/ha): 5 | Post-emerge phytotoxicity rating RICE (crop damage) ([13]; Rate 250 g ai/ha): 20 | Post-emerge phytotoxicity rating CORN (crop damage) ([14]; Rate 63 g ai/ha): 70 | Post-emerge phytotoxicity rating CORN (crop damage) ([14]; Rate 250 g ai/ha): 99 | Pre-emerge herbicidal activity, phytotoxicity rating ABUTH ([15]; 63 g ai/ha): 0 | Pre-emerge herbicidal activity, phytotoxicity rating ABUTH ([15]; 250 g ai/ha): 90 | Pre-emerge herbicidal activity, phytotoxicity rating AMBEL ([16]; 63 g ai/ha): 0 | Pre-emerge herbicidal activity, phytotoxicity rating AMBEL ([16]; 250 g ai/ha): 0 | Pre-emerge herbicidal activity, phytotoxicity rating DIGSA ([17]; 63 g ai/ha): 90 | Pre-emerge herbicidal activity, phytotoxicity rating DIGSA ([17]; 250 g ai/ha): 100 | Pre-emerge herbicidal activity, phytotoxicity rating ECHCG ([18]; 63 g ai/ha): 0 | Pre-emerge herbicidal activity, phytotoxicity rating ECHCG ([18]; 250 g ai/ha): 70 | Pre-emerge herbicidal activity, phytotoxicity rating CASOB ([19]; 63 g ai/ha): 0 | Pre-emerge herbicidal activity, phytotoxicity rating CASOB ([19]; 250 g ai/ha): 0 | Pre-emerge herbicidal activity, phytotoxicity rating CHEAL ([20]; 63 g ai/ha): 60 | Pre-emerge herbicidal activity, phytotoxicity rating CHEAL ([20]; 250 g ai/ha): 90 | Pre-emerge herbicidal activity, phytotoxicity rating SORHA ([21]; 63 g ai/ha): 0 | Pre-emerge herbicidal activity, phytotoxicity rating SORHA ([21]; 250 g ai/ha): 30 | Pre-emerge herbicidal activity, phytotoxicity rating IPOHE ([22]; 63 g ai/ha): 0 | Pre-emerge herbicidal activity, phytotoxicity rating IPOHE ([22]; 250 g ai/ha): 0 | Pre-emerge herbicidal activity, phytotoxicity rating SETVI ([23]; 63 g ai/ha): 0 | Pre-emerge herbicidal activity, phytotoxicity rating SETVI ([23]; 250 g ai/ha): 20
